Experimental findings from publication PMC5327470, “Discovery and Optimization of Novel 5-Indolyl-7-arylimidazo[1,2-a]pyridine-8-carbonitrile Derivatives as Potent Antitubulin Agents Targeting Colchicine-binding Site” (Scientific Reports, 2017) are described below.

Data set [1] relates to HT-29 (human colon cancer). Put plainly: MTT antiproliferative assay, HT-29. In kind it is cell-based. To be noted: Homo sapiens, HT-29; MTT, 72 h, mean ± SD; read-out: IC50 (μM) ±SD HT29. How it is done: (§1) To evaluate the antiproliferative activity, all synthesized derivatives (5a–5v and 7a–7h) were investigated for their activity in vitro against a panel of cancer cell lines including HT-29 (human colon cancer), H460 (human lung cancer), A549 (human lung carcinoma), MKN-45 (human gastric cancer) and SMMC-7721 (human liver cancer) by MTT assay. CA-4 and Crolibulin were served as positive control, and the results expressed as half-maximal inhibitory concentration (IC50). IC50 values are the concentrations that cause 50% inhibition of cancer cell growth (μM). Data represent the mean values ± standard deviation (SD) of independent experiments performed in triplicate.
(§2) Cell lines and culture conditions.The human colon carcinoma cell line HT-29, the human pulmonary carcinoma cell line A549, the human gastric carcinoma cell line MKN-45, the human breast cancer cell line MDA-MB-231 and human heptocarcinoma cellline SMMC-7721were cultured in RPMI-1640 mediumcontaining 10% FBS, 100 U/mL streptomycin and 100 U/mL penicillinat 37 °C in humidified atmosphere with 5% CO2. All of the cells were purchased from the American Type Culture Collection (ATCC, Manassas, VA).
(§3) The antiproliferative activities in vitro of Crolibulin and all the target compounds were determined by an MTT assay. Briefly, cells were seeded into 96-well plates at a density of 1–3 × 10^4/well (depends on the cell growth rate). 24 h later, triplicate wells were treated with media and the agents. After 72 h ofincubation at 37 °C in 5% CO2, the drug containing medium wasremoved and replaced by 100 mL of fresh medium with 5 mg/mLMTT solution. After 4 h of incubation, the medium with MTT was removed, and […] of DMSO was added to each well. The plates were gently agitated until the purple formazan crystals were dissolved, and the OD490 was determinedusing a microplate reader (MK3, Thermo, Germany). The data were calculated and plotted as the percent viability compared to the control. The 50% inhibitory concentration (IC50) was defined as theconcentration that reduced the absorbance of the untreated wells by 50% of the vehicle in the MTT assay.
(Tetrazolium assays rely on reduction of a dye to a coloured formazan, in cell work by metabolically active cells.)

Data set [2] relates to MKN-45 (human gastric cancer). As to the kind of experiment: MTT antiproliferative assay, MKN-45. To be noted: 72 h, mean ± SD, read-out: IC50 (μM) ±SD MKN45. Type of data set: cell-based. How it is done:
as §1, §2, §3

In data set [3] the test system is microtubules in HT-29 cells. As to the kind of experiment: Immunofluorescence staining of microtubule network. In kind it is cell-based, human. Conditions: 12 h, anti-α-tubulin immunostaining. How it is done:
After incubation, cells were fixed, reacted with monoclonal anti-tubulin antibody at 4 °C overnight and then reacted with fluorescein isothiocyanate (FITC) conjugated secondary antibody, DAPI was used for nuclear counter-staining, the cellular microtubules were observed under fluorescence microscope (scale bar = 20 μm).
The HT-29 cells were seeded at 1 × 10^4 per well on a 24 wellplate and grown for 24 h. […] Cells in the control group were treated with culture medium. The control and treated cells were fixed with 4% formaldehydein PBS for 30 min at −20 °C, then washed twice with PBS and permeabilized with 0.1% (v/v) Triton X-100 in PBS for 5 min. Then, the cells were blocked with 3% bovine serum albumin(BSA) in PBS for 30 min. The primary α-tubulin antibody wasdiluted (1:100) with 2% BSA in PBS and incubated overnight at 4 °C. The cells were washed with PBS to remove unbound primaryantibody and then cells were incubated with FITC-conjugated antimousesecondary antibody, diluted (1:100) with 2% BSA in PBS, for 2 h at 37 °C. The cells were washed with PBS to remove unbound secondary antibody, nucleus was stained with 4,6-diamino-2-phenolindoldihydrochloride (DAPI) and then, immunofluorescencewas detected using a fluorescence microscope (Olympus,Tokyo, Japan).

For data set [4], the system named is human fetal hepatocyte line L02. As to the kind of experiment: MTT assay on normal cell line L02. To be noted: non-cancer cell line. In kind it is cell-based. How it is done:
The drug candidate potency depends not only on its cytotoxicity in malignant cells, but also on its relative lack of toxicity toward normal cells.
as §3

In data set [5] the test system is tubulin, colchicine site. As to the kind of experiment: Colchicine competition (competitive tubulin-binding) assay. To be noted: 0, 1.6, 5 and 15 μM, 1 h at 37 °C, then 5 μM colchicine. On the procedure:
Figure 6 Colchicine competition assay. […] The fluorescence was measured by Hitachi F-2500 spectrofluorometer.
Then colchicine was added to a final concentration of 5 μM[43]. Fluorescence was determined using a Hitachi F-2500 spectrofluorometer (Tokyo, Japan) at excitation wavelengths of 365 nm and emission wavelengths of 435 nm. Blank values (buffer alone) as background were subtracted from all samples. […] Taxol, not binding in the colchicine-site of tubulin, was added as a negative control.

In data set [6] the test system is H460 (human lung cancer). Put plainly: MTT antiproliferative assay, H460. In kind it is cell-based. To be noted: Homo sapiens, MTT, 72 h, mean ± SD. On the procedure: as §1, §3
In data set [7] the test system is A549 (human lung carcinoma). Put plainly: MTT antiproliferative assay, A549. In kind it is cell-based. Conditions: 72 h, mean ± SD. On the procedure: as §1, §2, §3
For data set [8], the system named is HT-29 cells. As to the kind of experiment: Cell cycle phase distribution by flow cytometry. In kind it is cell-based, human. To be noted: 24 h. On the procedure: The structural similarities between the target compounds (5a–5v and 7a–7h) with CA-4 and Crolibulin, as well as the promising cytotoxic activity led us to hypothesize that these compounds exert their antiproliferative properties through inhibition of tubulin dynamics, thus inducing mitotic arrest in cancer cells. […] Controls were treated with drug vehicle DMSO. […] And this effect is characteristic of antimitotic agents disrupting microtubule assembly.
Data are expressed as the mean ± SEM.
For flow cytometric analysis of DNA content, cells inexponential growth were treated with compound for 24 h[41]. The cells treated with compoundwere collected, washed twice with PBS, and then fixed with 75% alcohol overnight. Then, the cells were washed with PBS and resuspended in 100 μL of PBS, 200 mg/mL RNase wasadded for 30 min to eliminate the interference of RNA, and 20 mL/L propidium iodide (PI; Sigma) was added for 30 min.Then, the cells were washed, and the DNA content wasdetected by flow cytometer (BD Accuri C6).
(Flow cytometry measures light scatter and fluorescence of single cells or particles in a stream.)

Data set [9] concerns SMMC-7721 (human liver cancer). Put plainly: MTT antiproliferative assay, SMMC-7721. Type of data set: cell-based. Conditions: 72 h, mean ± SD. On the procedure:
Data represent the mean values ± standard deviation (SD) of independent experiments performed in triplicate.
All of the cells were purchased from the American Type Culture Collection (ATCC, Manassas, VA).
as §3, with “After 72 h ofincubation at 37 °C in 5% CO2, the drug containing medium wasremoved and replaced by 100 mL of fresh medium with 5 mg/mLMTT solution.” left out, “control.” for “control. The 50% inhibitory concentration (IC50) was defined as theconcentration that reduced the absorbance of the untreated wells by 50% of the vehicle in the MTT assay.”

Structures are written as SMILES. Entries after “also recorded” stand apart in the source; their conditions may differ.

One may read the IC50 as the concentration needed to halve the response being measured. As a reminder, the melting point is the temperature, or range, at which the solid turns liquid. The compound `N#Cc1c(-c2ccc(F)cc2Cl)cc(-c2c[nH]c3ccccc23)n2ccnc12` [5k, 7-(2-chloro-4-fluorophenyl)-5-(1H-indol-3-yl)imidazo[1,2-a]pyridine-8-carbonitrile] yielded a melting point of 307.9 to 317.3 °C. Moreover, the IC50 in data set [1] is 0.02 ± 0.001 µM. In [2], the IC50 was found to be 0.14 ± 0.03 µM. Also, in data set [3] (HT-29, 32.5 nM), the “effect on microtubule network” value is listed as “cellular microtubule depolymerization”. Moreover, the “effect on normal cell L02” value in [4] is reported as “negligible effects; also recorded: minimal”. Besides, in data set [5], the “effect on intrinsic fluorescence of colchicine-tubulin complex” value is given as “decreased the intrinsic colchicine fluorescence in a dose-dependent manner”. For the same compound, the IC50 in [6] (NCI-H460, 72 h) came out at 0.05 ± 0.008 µM. This compound also showed an IC50 in [7] of 0.57 ± 0.08 µM. Moreover, the “percent of cells in G1 phase” value in data set [8] (HT-29, 20 nM) was 62.84%. In addition, in [8] (HT-29, 200 nM), the “percent of cells in G1 phase” value turned out to be 65.76% and the “percent of cells in G2 (G2/M) phase” value is reported as 14.21%. For the same compound, in [8] (HT-29, 1000 nM), the “percent of cells in G1 phase” value was found to be 24.62% and the “percent of cells in G2 (G2/M) phase” value worked out at 64.07%.
In the case of `COc1ccc(/C=C\c2cc(OC)c(OC)c(OC)c2)cc1O` [CA-4, Combretastatin A-4, reference compound], the concentration for half-maximal inhibition (IC50) in [1] is 0.05 ± 0.01 µM; in [2], 0.11 ± 0.02 µM; in [9], 1.92 ± 0.11 µM; in data set [6] (NCI-H460), 0.08 ± 0.01 µM; in data set [7] it was 0.43 ± 0.053 µM. Further, in data set [3] (HT-29, 20 nM), the “effect on microtubule network” value is reported as “cellular microtubule depolymerization”.
Regarding `CC(=O)O[C@H]1C(=O)[C@@]2(C)[C@H]([C@H](OC(=O)c3ccccc3)[C@]3(O)C[C@H](OC(=O)[C@H](O)[C@@H](NC(=O)c4ccccc4)c4ccccc4)C(C)=C1C3(C)C)[C@]1(OC(C)=O)CO[C@@H]1C[C@@H]2O` [Taxol, reference compound], the “effect on intrinsic fluorescence of colchicine-tubulin complex” value in data set [5] is reported as “scarcely effect”.
